# Target: T1, human TRPM8 (Homo sapiens, UniProt Q7Z2W7)
# T1 construct: expressed in transfected cells; host or cells: HEK293
# Test: Menthol-induced Ca2+ influx in HEK293 cells stably expressing human TRPM8
# Assay type: cell-based
# Settings: 30 microM menthol-induced Ca2+ influx, read-out: IC50 against TRPM8
# Method in brief: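 IC50 values were fitted from 11-point dose-response data averaged over duplicate wells. Compound was added for 5 min to Fluo4-loaded HEK293 cells carrying stable human TRPM8, in HBSS/HEPES pH 7.4 with probenecid. Intracellular Ca2+ change after 30 microM menthol addition was then imaged on FDSS.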
# T1 sequence (Q7Z2W7 whole entry): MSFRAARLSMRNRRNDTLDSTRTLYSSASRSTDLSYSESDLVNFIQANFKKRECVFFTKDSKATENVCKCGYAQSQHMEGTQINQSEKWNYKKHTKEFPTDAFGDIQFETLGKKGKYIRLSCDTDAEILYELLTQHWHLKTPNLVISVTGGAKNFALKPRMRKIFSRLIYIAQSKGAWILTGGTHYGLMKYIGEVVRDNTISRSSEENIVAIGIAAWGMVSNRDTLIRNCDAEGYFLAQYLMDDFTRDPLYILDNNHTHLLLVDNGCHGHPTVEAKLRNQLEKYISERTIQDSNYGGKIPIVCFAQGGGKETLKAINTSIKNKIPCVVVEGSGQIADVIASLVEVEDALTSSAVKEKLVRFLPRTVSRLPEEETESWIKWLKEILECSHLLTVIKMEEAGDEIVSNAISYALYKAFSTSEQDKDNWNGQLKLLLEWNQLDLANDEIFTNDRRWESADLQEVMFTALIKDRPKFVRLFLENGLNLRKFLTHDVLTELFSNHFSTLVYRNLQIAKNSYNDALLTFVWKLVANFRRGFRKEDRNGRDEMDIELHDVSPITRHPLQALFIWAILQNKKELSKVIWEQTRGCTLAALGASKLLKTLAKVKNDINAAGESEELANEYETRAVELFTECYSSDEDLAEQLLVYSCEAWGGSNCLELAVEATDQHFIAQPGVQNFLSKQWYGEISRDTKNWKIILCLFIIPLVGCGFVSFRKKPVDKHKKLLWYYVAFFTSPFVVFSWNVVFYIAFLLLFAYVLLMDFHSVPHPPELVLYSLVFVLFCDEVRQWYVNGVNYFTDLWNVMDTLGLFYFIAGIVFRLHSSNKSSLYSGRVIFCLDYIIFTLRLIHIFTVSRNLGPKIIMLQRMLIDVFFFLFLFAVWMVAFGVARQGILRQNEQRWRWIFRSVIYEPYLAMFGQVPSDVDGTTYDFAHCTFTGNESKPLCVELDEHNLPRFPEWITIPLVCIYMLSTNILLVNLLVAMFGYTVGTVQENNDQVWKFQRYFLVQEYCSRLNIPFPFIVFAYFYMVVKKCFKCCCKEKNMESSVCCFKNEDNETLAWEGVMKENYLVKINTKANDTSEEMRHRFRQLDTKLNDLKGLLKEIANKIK
row,IC50,SMILES
1,< 100 nM,Cn1c(=O)n(-c2ccc(C(=O)CN3C(=O)NC4(CCC(F)(F)CC4)C3=O)cc2)c2ccccc21 [Example 19-23]
2,< 100 nM,O=C(CN1C(=O)NC2(CCC(F)(F)CC2)C1=O)c1cnc(-n2cnc3ccccc32)cn1 [Example 19-24]
3,< 100 nM,O=C(CN1C(=O)NC2(CCC(F)(F)CC2)C1=O)c1cnc(N2C(=O)COc3ccccc32)cn1 [Example 19-25]
4,< 100 nM,O=C(CN1C(=O)NC2(CCC(F)(F)CC2)C1=O)c1ccc(N2C(=O)Cc3ccccc32)cc1 [Example 19-26]
5,< 500 nM,O=C(CN1C(=O)NC2(CCC(F)(F)CC2)C1=O)c1ccc(N2C(=O)CCc3ccccc32)cc1 [Example 19-27]
6,< 10 nM,O=C(CN1C(=O)NC2(CCC(F)(F)CC2)C1=O)c1ccc(-n2c(=O)oc3ccccc32)cc1 [Example 19-30]
7,< 10 nM,Cc1nc2ccccc2n1-c1cnc(C(=O)CN2C(=O)NC3(CCC(F)(F)CC3)C2=O)cn1 [Example 19-33]
8,< 500 nM,O=C(CN1C(=O)NC2(CCC(F)(F)CC2)C1=O)c1ccc(-n2cnc3cncnc32)cc1 [Example 19-34]
9,< 500 nM,O=C(CN1C(=O)NC2(CCC(F)(F)CC2)C1=O)c1ccc(-n2cnc3ncncc32)cc1 [Example 19-35]
10,< 100 nM,O=C(CN1C(=O)NC2(CCC(F)(F)CC2)C1=O)c1ccc(-n2cnc3nccnc32)cc1 [Example 19-37]
11,< 500 nM,Cc1nc2nccnc2n1-c1ccc(C(=O)CN2C(=O)NC3(CCC(F)(F)CC3)C2=O)cc1 [Example 19-39]
12,< 100 nM,"O=C(CN1C(=O)NC2(CCCCC2)C1=O)c1ccc(Oc2cccc(Cl)c2)nc1 [Example 20-1, 3-(2-(6-(3-chlorophenoxy)pyridin-3-yl)-2-oxoethyl)-1,3-diazaspiro[4.5]decane-2,4-dione]"
13,< 500 nM,O=C(CN1C(=O)NC2(CCCCC2)C1=O)c1ccc(Oc2cccnc2)nc1 [Example 20-2]
14,< 500 nM,Cc1cccc(Oc2ccc(C(=O)CN3C(=O)NC4(CCCCC4)C3=O)cn2)c1 [Example 20-3]
15,< 500 nM,O=C(CN1C(=O)NC2(CCCCC2)C1=O)c1ccc(OCCNc2ccccc2)nc1 [Example 20-4]
16,< 500 nM,O=C(CN1C(=O)NC2(CCCCC2)C1=O)c1ccc(Oc2ccccc2Cl)nc1 [Example 20-5]
17,< 100 nM,O=C(CN1C(=O)NC2(CCC(F)(F)CC2)C1=O)c1ccc(Oc2ccccn2)nc1 [Example 20-6]
18,< 100 nM,N#Cc1cccc(Oc2ccc(C(=O)CN3C(=O)NC4(CCC(F)(F)CC4)C3=O)cn2)c1 [Example 20-7]
19,< 100 nM,O=C(CN1C(=O)NC2(CCC(F)(F)CC2)C1=O)c1ccc(Oc2cccc(Cl)c2)nc1 [Example 20-8]

row,IC50,SMILES
1,< 500 nM,O=C(CN1C(=O)NC2(CCC(F)(F)CC2)C1=O)c1ccc(Sc2ccccc2)nc1 [Example 20-9]
2,< 100 nM,"N#Cc1cccnc1Oc1ccc(C(=O)CN2C(=O)NC3(CCC(F)(F)CC3)C2=O)cc1 [Example 21-1, 2-(4-(2-(8,8-difluoro-2,4-dioxo-1,3-diazaspiro[4.5]decan-3-yl)acetyl)phenoxy)nicotinonitrile]"
3,< 100 nM,"O=C(CN1C(=O)NC2(CCC(F)(F)CC2)C1=O)c1ccc(Oc2ncccc2Cl)cc1 [Example 21-2, 3-(2-(4-((3-chloropyridin-2-yl)oxy)phenyl)-2-oxoethyl)-8,8-difluoro-1,3-diazaspiro[4.5]decane-2,4-dione]"
4,< 500 nM,Cc1cccnc1Oc1ccc(C(=O)CN2C(=O)NC3(CCC(F)(F)CC3)C2=O)cc1 [Example 21-3]
5,< 500 nM,Cc1ccnc(Oc2ccc(C(=O)CN3C(=O)NC4(CCC(F)(F)CC4)C3=O)cc2)c1 [Example 21-4]
6,< 100 nM,N#Cc1cccc(Oc2ccc(C(=O)CN3C(=O)NC4(CCC(F)(F)CC4)C3=O)cc2)n1 [Example 21-5]
7,< 500 nM,Cc1cccc(Oc2ccc(C(=O)CN3C(=O)NC4(CCC(F)(F)CC4)C3=O)cc2)n1 [Example 21-6]
8,< 500 nM,Cc1ccnc(Oc2ccc(C(=O)CN3C(=O)NC4(CCC(F)(F)CC4)C3=O)cc2)n1 [Example 21-7]
9,< 100 nM,N#Cc1nccnc1Oc1ccc(C(=O)CN2C(=O)NC3(CCC(F)(F)CC3)C2=O)cc1 [Example 21-8]
10,< 500 nM,"Cc1ccnnc1Oc1ccc(C(=O)CN2C(=O)NC3(CCC(F)(F)CC3)C2=O)cc1 [Example 21-11, 8,8-difluoro-3-(2-(4-((4-methylpyridazin-3-yl)oxy)phenyl)-2-oxoethyl)-1,3-diazaspiro[4.5]decane-2,4-dione]"
11,< 100 nM,"N#Cc1ccnnc1Oc1ccc(C(=O)CN2C(=O)NC3(CCC(F)(F)CC3)C2=O)cc1 [Example 21-12, 3-(4-(2-(8,8-difluoro-2,4-dioxo-1,3-diazaspiro[4.5]decan-3-yl)acetyl)phenoxy)pyridazine-4-carbonitrile]"
12,< 100 nM,"O=C(CN1C(=O)NC2(CCC(F)(F)CC2)C1=O)c1ccc(Oc2nccs2)cc1 [Example 21-13, 8,8-difluoro-3-(2-oxo-2-(4-(thiazol-2-yloxy)phenyl)ethyl)-1,3-diazaspiro[4.5]decane-2,4-dione]"
13,< 100 nM,"O=C(CN1C(=O)NC2(CCC(F)(F)CC2)C1=O)c1ccc(Oc2cccnc2)cc1 [Example 21-14, 8,8-difluoro-3-(2-oxo-2-(4-(pyridin-3-yloxy)phenyl)ethyl)-1,3-diazaspiro[4.5]decane-2,4-dione]"
14,< 500 nM,O=C(CN1C(=O)NC2(CCC(F)(F)CC2)C1=O)c1ccc(Oc2cncnc2)cc1 [Example 21-15]
15,< 500 nM,O=C(CN1C(=O)NC2(CCC(F)(F)CC2)C1=O)c1ccc(Oc2cccnc2)cc1F [Example 21-16]
16,< 100 nM,O=C(CN1C(=O)NC2(CCC(F)(F)CC2)C1=O)c1ccc(Oc2cccnc2)c(F)c1 [Example 21-17]
17,< 100 nM,O=C(CN1CC2(CCC(F)(F)CC2)OC1=O)c1ccc(-n2cnc3cccnc32)cc1 [Example 22-1]
18,< 500 nM,Cc1nc2cccnc2n1-c1ccc(C(=O)CN2CC3(CCC(F)(F)CC3)OC2=O)cc1 [Example 22-2]
19,< 100 nM,Cc1nc2ccccc2n1-c1ccc(C(=O)CN2CC3(CCC(F)(F)CC3)OC2=O)cc1 [Example 22-3]

row,IC50,SMILES
1,< 100 nM,O=C(CN1CC2(CCC(F)(F)CC2)OC1=O)c1ccc(-n2cnc3ccccc32)cc1 [Example 22-4]
2,< 500 nM,Cc1ccc2nc(C)n(-c3ccc(C(=O)CN4CC5(CCC(F)(F)CC5)OC4=O)cc3)c2n1 [Example 22-6]
3,< 100 nM,"O=C(CN1C(=O)NC2(CCC(F)(F)CC2)C1=O)c1ccc(-n2c(=O)[nH]c3cccnc32)cc1 [Example 23-1, 8,8-difluoro-3-(2-oxo-2-(4-(2-oxo-1H-imidazo[4,5-b]pyridin-3(2H)-yl)phenyl)ethyl)-1,3-diazaspiro[4.5]decane-2,4-dione]"
4,< 100 nM,"Cc1ccc2[nH]c(=O)n(-c3ccc(C(=O)CN4C(=O)NC5(CCC(F)(F)CC5)C4=O)cc3)c2n1 [Example 23-2, 8,8-difluoro-3-(2-(4-(5-methyl-2-oxo-1H-imidazo[4,5-b]pyridin-3(2H)-yl)phenyl)-2-oxoethyl)-1,3-diazaspiro[4.5]decane-2,4-dione]"
5,< 100 nM,O=C(CN1C(=O)NC2(CCC(F)(F)CC2)C1=O)c1ccc(-n2c(C(F)F)nc3cccnc32)cc1 [Example 24-1]
6,< 500 nM,CCc1nc2cccnc2n1-c1ccc(C(=O)CN2C(=O)NC3(CCC(F)(F)CC3)C2=O)cc1 [Example 24-2]
7,< 500 nM,O=C(CN1C(=O)NC2(CCC(F)(F)CC2)C1=O)c1ccc(-n2c(C3CC3)nc3cccnc32)cc1 [Example 24-3]
8,< 500 nM,COCc1nc2cccnc2n1-c1ccc(C(=O)CN2C(=O)NC3(CCC(F)(F)CC3)C2=O)cc1 [Example 24-4]
9,< 10 nM,Cc1ccc2nc(C(F)F)n(-c3ccc(C(=O)CN4C(=O)NC5(CCC(F)(F)CC5)C4=O)cc3)c2n1 [Example 24-5]
10,< 100 nM,"O=C(CN1C(=O)NC2(CCC(F)(F)CC2)C1=O)c1ccc(-n2c(C(F)(F)F)nc3cccnc32)cc1 [Example 24-6, 8,8-difluoro-3-(2-oxo-2-(4-(2-(trifluoromethyl)-3H-imidazo[4,5-b]pyridin-3-yl)phenyl)ethyl)-1,3-diazaspiro[4.5]decane-2,4-dione]"
11,< 10 nM,"Cc1ccc2nc(C(F)(F)F)n(-c3ccc(C(=O)CN4C(=O)NC5(CCC(F)(F)CC5)C4=O)cc3)c2n1 [Example 24-7, 8,8-difluoro-3-(2-(4-(5-methyl-2-(trifluoromethyl)-3H-imidazo[4,5-b]pyridin-3-yl)phenyl)-2-oxoethyl)-1,3-diazaspiro[4.5]decane-2,4-dione]"
12,< 500 nM,Cc1ccc2nc(CN3CCCCC3)n(-c3ccc(C(=O)CN4C(=O)NC5(CCC(F)(F)CC5)C4=O)cc3)c2n1 [Example 25-3]
13,< 500 nM,Cc1ccc2nc(CN3CCC3)n(-c3ccc(C(=O)CN4C(=O)NC5(CCC(F)(F)CC5)C4=O)cc3)c2n1 [Example 25-4]
14,< 10 nM,"COc1nc2cccnc2n1-c1ccc(C(=O)CN2C(=O)NC3(CCC(F)(F)CC3)C2=O)cc1 [Example 26-1, 8,8-difluoro-3-(2-(4-(2-methoxy-3H-imidazo[4,5-b]pyridin-3-yl)phenyl)-2-oxoethyl)-1,3-diazaspiro[4.5]decane-2,4-dione]"
15,< 100 nM,Cc1ccc2ncn(-c3ccc(C(=O)CN4C(=O)NC5(CCC(F)(F)CC5)C4=O)cc3)c2n1 [Example 26-2]
16,< 10 nM,COc1nc2ccc(C)nc2n1-c1ccc(C(=O)CN2C(=O)NC3(CCC(F)(F)CC3)C2=O)cc1 [Example 26-3]
17,< 100 nM,CCOc1nc2ccc(C)nc2n1-c1ccc(C(=O)CN2C(=O)NC3(CCC(F)(F)CC3)C2=O)cc1 [Example 26-4]
18,< 10 nM,"Cc1nc2ccc(C#N)nc2n1-c1ccc(C(=O)CN2C(=O)NC3(CCC(F)(F)CC3)C2=O)cc1 [Example 27-1, 3-(4-(2-(8,8-difluoro-2,4-dioxo-1,3-diazaspiro[4.5]decan-3-yl)acetyl)phenyl)-2-methyl-3H-imidazo[4,5-b]pyridine-5-carbonitrile]"
